In series [1] the test system is MDA-MB-231 (breast adenocarcinoma) cells. Nature of the series: MTT assay of cell viability, MDA-MB-231. The class given is cell-based. As to conditions: in the presence of human holotransferrin. The protocol:
(§1) The present inventors have also investigated the antiproliferative activity of series of pro-chelators and chelators of the invention towards human cell lines. MTT assays of cell viability (Table 1) were performed on two cancer cell lines, neuroepithelioma SK-N-MC and breast adenocarcinoma MDA-MB-231, which are well studied in the context of iron deprivation. The established antiproliferative iron chelator DFO was used as a control and its toxicity profiles compared well to literature ones for these cell lines. Viability measurements were conducted in the presence of human holotransferrin in order to load intracellular iron pools and assess antiproliferative activity related to intracellular iron deprivation.
(§2) MDA-MB-231 (ATCC® HTB-26™) breast adenocarcinoma cells and SK-N-MC (ATCC® HTB-10™) neuroepithelioma cells were cultured under a 5% CO2 humidified atmosphere at 37° C. in Eagle's Minimal Essential Medium (EMEM) supplemented with 10% fetal bovine serum (FBS), glutamine (2 mM), sodium pyruvate (1 mM), sodium bicarbonate ([…]), penicillin (100 units/mL), streptomycin (100 μg/mL) and 1.25 μM (1 mg/10 mL) human holo-transferrin (Aldrich) prior to use. Jurkat T lymphocytes (ATCC® T1B-152™) were cultured at 37° C. under a 5% CO2 humidified atmosphere in RPMI 1640 media supplemented with 10% FBS, penicillin (5 mg/ml) and streptomycin (1 mg/ml), and maintained at a density lower than 2.0×10^6 cells/mL.
For orientation: Tetrazolium assays rely on reduction of a dye to a coloured formazan, in cell work by metabolically active cells.

The test system of series [2] is SK-N-MC (neuroepithelioma) cells. Nature of the series: MTT assay of cell viability, SK-N-MC. The class given is cell-based. The note with it: 48 h exposure, in the presence of human holotransferrin. As for the experimental part:
as §1, §2

Series [3] can be described thus: Equilibration in GSH/GSSG redox buffer solutions at different half-cell potentials. The class given is physicochemical. As to conditions: half-cell potentials of −220 mV or lower (vs SHE); 12.5 μM disulfide, 11-13 mM total glutathione, 2 h. As for the experimental part:
FIG. 3 is a graph showing the fraction of reduced chelator TC1-SH obtained from UV-visible absorption data in GSH/GSSG redox buffer solutions at different half-cell potentials. Total ([GSH]+[GSSG]) was maintained at 11-13 mM, whereas initial [(TC1-S)2] was 12.5 μM. Samples were allowed to equilibrate for 2 h. Data points are plotted as average of triplicate measurements±standard deviation.
In order to estimate the speciation of the prochelator/chelator system in solutions containing glutathione levels reflecting biologically relevant conditions, disulfide (TC1-S)2 was allowed to equilibrate in a series of redox buffer mixtures. The half-cell potentials for the solutions were calculated based on the concentrations of GSH and GSSG and they were selected to include values from those typically associated to proliferating cells (−240 mV vs SHE) to those found in necrotic cells (−180 mV). […] FIG. 3. As such, in this model of intracellular conditions containing micromolar chelation system and millimolar glutathione buffer, the chelation system after equilibration was found prevalently in its reduced iron-binding form at glutathione half-cell potentials that are characteristic of proliferating and malignant cells.

The subject of series [4] is MDA-MB-231 cells. As to the kind of experiment: Intracellular ROS generation, oxidation of DCFH2 to DCF. The class given is cell-based, human. The note with it: 30 min incubation, compared to H2O2 (100 μM) positive control. As for the experimental part:
FIG. 8 is a bar graph showing intracellular generation of ROS monitored through the oxidation of DCFH2 to fluorescent DCF (ex: 485 nm, em: 528 nm). MDA-MB-231 cells were treated with DCFH2-DA (10 μM, 10 min), washed and then incubated with test compounds (concentrations as shown, 30 min). H2O2 (100 μM) was employed as a positive control. Measurements were conducted in triplicate and reported as average±standard deviation.
The in-vitro results above were confirmed in cultures of MBA-MD-231 breast carcinoma cells using a fluorescence-based assay of ROS generation. Added to the growth media, cell-permeable dihydrodichlorofluorescein diacetate (DCFH2-DA) was hydrolized intracellularly to trap the probe dihydrodichlorofluorescein (DCFH2), which was oxidized by several ROS to give the bright fluorescent product dichlorofluorescein. […] FIG. 8.

The nature of series [5]: Reduction by GSH monitored by UV-visible absorption spectroscopy. The class given is physicochemical. As to conditions: GSH 11.0 mM. As for the experimental part: FIG. 2 is a graph showing reduction of (TC1-S)2 (9.0 μM) by GSH (11.0 mM) as monitored by UV-visible absorption spectroscopy in buffered aqueous solution (50 mM PIPES, pH 7.4) at 25° C. Spectral changes during the reduction of (TC1-S)2 (Line 2, […]) to TC1-SH (Line 1) by GSH (11.0 mM). The reaction goes to substantial completion within 2 h.
The reduction of (TC1-S)2 can be monitored in vitro by UV-visible absorption spectroscopy. FIG. 2.

The subject of the next series is Jurkat cells. Nature of the series: Calcein-AM fluorescence assay of intracellular iron binding. The note with it: suspended Jurkat cells loaded with calcein; SIH added after (TC1-S)2. The class given is cell-based, human. An excerpt:
FIG. 5 is a graph showing displacement of paramagnetic ions and restoration of calcein fluorescence by addition of chelators (TC1-S)2 and SIH at the indicated times and final concentrations in suspended Jurkat cell cultures. Fluorescence intensity at 517 nm (excitation, 488 nm) is plotted as the difference from the initial values before any addition. DMSO concentration was kept constant in all solutions.
Intracellular iron binding was first examined using calcein-AM, the acetoxymethyl ester of a fluorescein-based sensor of metal ions in biological specimens. Trapped intracellularly upon hydrolysis of the ester groups by esterases, calcein coordinates iron and possibly other (far less abundant) cations (e.g., Cu(II) and Zn(II)). Calcein stabilizes ferric iron coordination and this paramagnetic ion quenches considerably its fluorescence emission.

The test system of series [6] is MRC-5 (normal lung fibroblast) cells. As to the kind of experiment: MTT assay of cell viability, MRC-5. The class given is cell-based, human. The note with it: for IC50: MTT assay, 72 h exposure; for toxicity in normal lung fibroblasts (comparison): normal cells. The protocol:
as §1
Because normal cells divide at a lower rate, MTT assays were performed after exposures of 48 h and also 72 h (Table 1).

Series [7] concerns ribonucleotide reductase (RNR) tyrosyl radical in Jurkat cells. As to the kind of experiment: Whole-cell EPR of the tyrosyl radical of ribonucleotide reductase. The class given is cell-based, human. As to conditions: 50 μM. As for the experimental part:
FIG. […] Experimental conditions: microwave frequency, 9.338 GHz; microwave power, 2 mW; magnetic field modulation amplitude, 0.5 mT; temperature, 30° K.
EPR data were also used to examine the effect of chelation system on the tyrosyl radical that characterizes the active site of ribonucleotide reductase (RNR), the iron-dependent enzyme that is believed to be essential in DNA biosynthesis.

The nature of series [8]: Cyclic voltammetry in DMF. The class given is physicochemical. The note with it: glassy carbon electrode. The text has this: FIG. 10 is a cyclic voltammograms of disulfides 1a-c at a glassy carbon electrode in DMF with (n-Bu4N)(PF6) as supporting electrolyte. Data collected at a 100 mVS^−1 sweep rate using Ag/AgNO3 reference electrode and a platinum wire auxiliary electrode.
The reduction of disulfides 1a-c was investigated by electrochemical methods in N,N-dimethylformamide. FIG. 10. The collected cyclic voltammograms present irreversible cathodic peaks that are characteristic of aromatic disulfide reduction and correspond to the two-electron reductive process leading to formation of two thiolate ions. Consistent with reported electronic effects of substituents in aromatic disulfides, peak reduction potentials of compounds 1a-c vary considerably with the substitution on the thiosemicarbazone unit. […] These experiments established that electronic effects of the partially conjugated chelating units modulate the thermodynamic drive to reduction of disulfide constructs. Similarly, it is expected that an electron withdrawing group substituent on the phenyl ring itself (e.g., R^3 and/or R^4 in Formula I) will also result in lower reduction potential. As used herein, the term “electron withdrawing group” refers to any substituent that draws electron density away from a given center (e.g., disulfide or thiol group in compounds 1a-c and 2a-c, respectively). […]

Series [9] has as its system MDA-MB-231 cells. Nature of the series: Effect of NAC supplementation on toxicity (viability assay). The note with it: 10.0 μM compound, 48 h, after 6 h NAC. The class given is cell-based, human. As for the experimental part: FIG. 4 is a bar graph showing the effect of N-acetyl cystein (NAC) supplementation on the toxicity of DFO (10 μM) and (TC1-S)2 (10 μM). MDA-MB-231 cells were incubated with NAC for 6 h before treatment with DFO (10.0 μM) or (TC1-S)2 (10.0 μM) for 48 h. Percent viability is expressed relative to control treated with DMSO and averaged over three experiments±percent standard deviation.
The control of reducing conditions employed in vitro in the experiments summarized above cannot be achieved in cell culture; nevertheless, the intracellular concentration of GSH can be increased by supplementing with N-acetyl cysteine (NAC), a precursor required for GSH biosynthesis. […] FIG. 4.

Series [10] in a line: Iron coordination with Fe(BF4)2.6H2O. The class given is binding. The note with it: organic solvents and buffered aqueous solutions. The text has this:
Consistent with the modest coordinating ability of disulfide linkages in general and the conformational restraints they impose on the joint thiosemicarbazone units in this case, disulfides 1a-c behave as masked pro-chelators of low iron coordinating ability.
Conversely, thiols 2a-c react readily with Fe(BF4)2.6H2O in organic solvents and in buffered aqueous solutions. From reactions in THF, iron complexes 3a-c were isolated by crystallization and characterized by high-resolution mass spectrometry and elemental analysis. Complexes 3a (FIG. 11) and 3b were also characterized by single crystal X-ray diffraction analysis.

The conditions of series [11]: clinical trials terminated; cited from earlier work.

The structures appear in SMILES notation.

One may read the IC50 as the midpoint of a concentration-inhibition curve. As for `NC(=S)NN=Cc1ccccc1SSc1ccccc1C=NNC(N)=S` [Compound 1a], the IC50 in [1] (48 h exposure) came out at 22.07 ± 0.04 µM; in [2] it was 8.91 ± 0.09 µM.

Regarding `S=C(NN=Cc1ccccc1SSc1ccccc1C=NNC(=S)Nc1ccccc1)Nc1ccccc1` [Compound 1c], the “estimated equilibrium percentage of thiol” value in series [3] was “greater than 80%”. Besides, the “intracellular generation of ROS (DCF fluorescence)” value in the series with MDA-MB-231 cells [4] is “did not elicit significant turn-on response”. In addition, the IC50 in [1] (48 h exposure) was 4.59 ± 0.06 µM; in series [1] (48 h exposure, listed as (TC1-S)2) it was 4.6 µM; in series [6] it was 30.91 ± 0.02 µM; in series [2] it was 6.81 ± 0.17 µM. In addition, the “time to substantial completion of reduction to TC1-SH” value in series [5] (9.0 μM disulfide, 50 mM PIPES, pH 7.4, 25° C.) is not above 2 h. Besides, the “conversion of disulfide to thiol” value in series [5] (neutral buffered aqueous solution, 9.0 μM) is “converted substantially quantitatively”. Moreover, in the series with Jurkat cells, the calcein fluorescence intensity result is reported as “concentration-dependent increase in fluorescence intensity”. Besides, the results for the “toxicity in normal lung fibroblasts (comparison)” value in series [6] and in series [6] (listed as (TC1-S)2) were “significantly less toxic than its corresponding thiol 2c” and “significantly less toxic than DFO”, respectively. The “RNR tyrosyl radical EPR signal” value in series [7] (1 h) was “decrease in RNR signal amplitude”. Besides, in [8], the “ease of disulfide reduction (peak reduction potential)” value is “easier to reduce compared to analogues 1a and 1b”. Also, the “effect of increasing NAC on toxicity” value with MDA-MB-231 cells [9] is “more susceptible”.

With `S=C(NN=Cc1ccccc1S)Nc1ccccc1` [Compound 2c], the “intracellular generation of ROS (DCF fluorescence)” value in the series with MDA-MB-231 cells [4] is given as “did not elicit significant turn-on response”. For the same compound, the IC50 in series [1] (48 h exposure) was determined as 15.01 ± 0.05 µM; in series [6] it was 15.08 ± 0.02 µM; in series [2] it was 5.19 ± 0.17 µM. For the same compound, the “stability of thiol in solution” value in series [5] (neutral buffered aqueous solution) is given as “over 6 h”. For the same compound, the iron coordination result in [10] was “readily coordinates Fe(II) ions”.

Turning to `NC(=S)NN=Cc1ncccc1N` [Compound 3-AP, 3-Aminopyridine-2-carboxaldehyde thiosemicarbazone], the adverse side effects result in [11] is on record as “methemoglobinemia”.

Regarding `CC(=O)N(O)CCCCCNC(=O)CCC(=O)N(O)CCCCCNC(=O)CCC(=O)N(O)CCCCCN` [DFO, desferrioxamine, reference compound], the IC50 in series [1] (Homo sapiens, MDA-MB-231, 48 h, 48 h exposure) was 17 µM; in series [1] (MDA-MB-231, 48 h exposure), 17.05 ± 0.05 µM; in series [6] (Homo sapiens, MRC5), 8.04 ± 0.03 µM; in series [2] (SK-N-MC), 10.02 ± 0.06 µM. Besides, the “RNR tyrosyl radical EPR signal” value in series [7] (3 h) was “loss of signal”. In the series on MDA-MB-231 cells [9], the “effect of increasing NAC on toxicity” value is “not affected significantly”.

Consider `O=C(NN=Cc1ccccc1O)c1ccncc1` [SIH, salicylaldehyde isonicotinoyl hydrazone, reference compound], for which the calcein fluorescence intensity result with Jurkat cells is recorded as “further increased fluorescence intensity”.
